The text below walks through data of ChEMBL document CHEMBL5223145, “A small molecule binding to TGGAA pentanucleotide repeats that cause spinocerebellar ataxia type 31” (Bioorg Med Chem Lett, 2023).

The source made the active and inactive calls. No cut-off for these calls is given here.

Assay [1] can be described thus: Stabilization of GGA/GGA-motif DNA (unknown origin) assessed as increase in melting temperature.
A short description of assay [2]: Stabilization of AGG/AGG-motif DNA (unknown origin) assessed as increase in melting temperature.
Assay [3] is described as follows: Stabilization of GGC/GGC -motif DNA (unknown origin) assessed as increase in melting temperature.
A short description of assay [4]: Stabilization of GGA/AAA-motif DNA (unknown origin) assessed as increase in melting temperature at 5 to 10 uM. The settings on record: dose 5-10 µM.
Assay [5] is described as follows: Stabilization of AAA/AAA-motif DNA (unknown origin) assessed as increase in melting temperature at 5 to 10 uM. The note with it: dose 5-10 µM.
Assay [6] can be described thus: Stabilization of GGA/AGG-motif DNA (unknown origin) assessed as increase in melting temperature at 5 to 10 uM. The settings on record: dose 5-10 µM.
A short description of assay [7]: Stabilization of TGGAA DNA (unknown origin) assessed as increase in melting temperature at 2 to 20 uM. The settings on record: dose 2-20 µM.
The nature of assay [8]: Stabilization of GGA/AGA-motif DNA (unknown origin) assessed as increase in melting temperature at 5 to 10 uM. The settings on record: dose 5-10 µM.
The nature of assay [9]: Stabilization of AGA/AGA-motif DNA (unknown origin) assessed as increase in melting temperature at 5 to 10 uM. The note with it: dose 5-10 µM.
A short description of assay [10]: Stabilization of AGA/AAA-motif DNA (unknown origin) assessed as increase in melting temperature at 5 to 10 uM. The note with it: dose 5-10 µM.
A short description of assay [11]: Binding affinity to GGA/GGA-motif hairpin DNA (unknown origin) assessed as association constant by isothermal titration calorimetry. (Isothermal titration calorimetry measures the heat released or taken up as one component is titrated into another.)

`Cc1ccc2ccc(NC(=O)CCNCCC(=O)Nc3ccc4ccc(C)nc4n3)nc2n1`: the Tm is 7.5 °C in assay [1] and 1.8 °C in assay [3]. Moreover, the outcome in assay [2] was Active.

With `Cc1ccc2ccc(NC(=O)CCN(CCC(=O)Nc3ccc4ccc(C)nc4n3)C(=O)CCCN)nc2n1`, the Tm in assay [1] was 13.8 °C; in [4], -1.2 °C; in assay [5], -1.2 °C; in assay [6] it was 13.8 °C; in [7], 68.5 °C; in assay [3] it was 4.6 °C. The Tm worked out at 9.8 °C in assay [8], 11.6 °C in assay [9] and 0.3 °C in assay [10]. In [2], the outcome was inactive. In [11], the Ka is 2.5 10^7/M.

As for `Cc1ccc2ccc(NC(=O)OCCCNCCCOC(=O)Nc3ccc4ccc(C)nc4n3)nc2n1`, the Tm in [1] was 6 °C. For the same compound, the result in assay [2] was Active. The result in assay [3] was inactive.

Take `Cc1ccc2ccc(NC(=O)CCN(CCCCN)CCC(=O)Nc3ccc4ccc(C)nc4n3)nc2n1`: the Tm in [1] was determined as 6 °C. Further, the outcome in assay [2] was Active. For the same compound, the outcome in assay [3] was inactive.
